# Key:
# [1] = Encapsulation efficiency (% EE), ribogreen; type: physicochemical; details: nanoparticles, compound:DSPC:cholesterol:PEG 2 50:10:38:2 mol %
# Text: (§1) The efficiency of encapsulation of a therapeutic and/or prophylactic describes the amount of therapeutic and/or prophylactic that is encapsulated or otherwise associated with a lipid nanoparticle (e.g., an empty LNP or a loaded LNP) after preparation, relative to the initial amount provided. The encapsulation efficiency is desirably high (e.g., close to 100%). The encapsulation efficiency may be measured, for example, by comparing the amount of therapeutic and/or prophylactic in a solution containing the lipid nanoparticle (e.g., an empty LNP or a loaded LNP) before and after breaking up the lipid nanoparticle (e.g., an empty LNP or a loaded LNP) with one or more organic solvents or detergents. Fluorescence may be used to measure the amount of free therapeutic and/or prophylactic (e.g., RNA) in a solution.
# (§2) Nanoparticle compositions including a therapeutic and/or prophylactic can be optimized according to the selection of a compound according to Formula (I), (I-1), (A), (A-1), (A-1a), or (A-1b), the selection of additional lipids, the amount of each lipid in the lipid component, and the wt:wt ratio of the lipid component to the therapeutic and/or prophylactic. Nanoparticle compositions including DSPC as a phospholipid, cholesterol as a structural lipid, PEG 2 as a PEG lipid, and a compound according to Formula (I), (I-1), (A), (A-1), (A-1a), or (A-1b) were prepared. The ratios of the lipids were 50:10:38:2 mol % for the lipid according to Formula (I), (I-1), (A), (A-1), (A-1a), or (A-1b):DSPC:cholesterol:PEG 2. […]
# [2] = Heparin-sepharose binding of nanoparticles
# serum protein ApoE = test: ApoE binding affinity of nanoparticles (bead binding, flow cytometry)
# Experimental: The ApoE binding affinity, i.e., the affinity of binding between nanoparticles comprising compounds of the disclosure and the serum protein ApoE, was determined by binding the nanoparticles to beads, then incubating them with known quantities of […]. The quantity of protein bound to the nanoparticle was then determined by flow cytometry.
# [3] = Size and polydispersity index of nanoparticles comprising compounds of the disclosure; type: physicochemical; details: compound:DSPC:cholesterol:PEG 2 50:10:38:2 mol %
# Text: Lipid nanoparticles (e.g., empty LNPs or loaded LNPs) may be characterized by a variety of methods. For example, microscopy (e.g., transmission electron microscopy or scanning electron microscopy) may be used to examine the morphology and size distribution of a nanoparticle composition. Dynamic light scattering or potentiometry (e.g., potentiometric titrations) may be used to measure zeta potentials. Dynamic light scattering may also be utilized to determine particle sizes. Instruments such as the Zetasizer Nano ZS (Malvern Instruments Ltd, Malvern, Worcestershire, UK) may also be used to measure multiple characteristics of a nanoparticle composition, such as particle size, polydispersity index, and zeta potential.
# as §2
# [4] = Encapsulation efficiency (% EE), ribostar; type: physicochemical; details: nanoparticles, compound:DSPC:cholesterol:PEG 2 50:10:38:2 mol %
# Text: as §1, with “solution. For the lipid nanoparticles (e.g., empty LNPs or loaded LNPs) described herein, the encapsulation efficiency of a therapeutic and/or prophylactic may be at least 50%, for example 50%, 55%, 60%, 65%, 70%, 75%, 80%, 85%, 90%, 91%, 92%, 93%, 94%, 95%, 96%, 97%, 98%, 99%, or 100%. In some embodiments, the encapsulation efficiency may be at least 80%. In certain embodiments, the encapsulation efficiency may be at least 90%. In some embodiments, the encapsulation efficiency of the therapeutic and/or prophylactic agent is between 80% and 100%.” for “solution.”
# Nanoparticle compositions including a therapeutic and/or prophylactic can be optimized according to the selection of a compound according to Formula (I), (I-1), (A), (A-1), (A-1a), or (A-1b), the selection of additional lipids, the amount of each lipid in the lipid component, and the wt:wt ratio of the lipid component to the therapeutic and/or prophylactic. Nanoparticle compositions including DSPC as a phospholipid, cholesterol as a structural lipid, PEG 2 as a PEG lipid, and a compound according to Formula (I), (I-1), (A), (A-1), (A-1a), or (A-1b) were prepared. The ratios of the lipids were 50:10:38:2 mol % for the lipid according to Formula (I), (I-1), (A), (A-1), (A-1a), or (A-1b):DSPC:cholesterol:PEG 2. Tables 2a, 2b, and 3-5 summarize the characteristics of the formulations.
# Table 4 summarizes the surface hydrophobicity of nanoparticles comprising compounds of the disclosure as determined by Generalized Polarization by Laurdan (GPL). Laurdan, a fluorescent aminonaphthalene ketone lipid, was post-inserted into the nanoparticle surface and the fluorescence spectrum of Laurdan was collected to determine the normalized Generalized Polarization (N-GP). Higher N-GP indicates a less polar surface.
# hEPO mRNA = test: hEPO expression in CD1-mice after intravenous administration of nanoparticles; type: in vivo; details: 6 h after intravenous administration, mRNA dose 0.5 mg/kg, N:P 3.4, compound:DSPC:cholesterol:PEG 2 50:10:38:2
# Experimental: The expression of hEPO mRNA in CD1-mice was measured 6 h after intravenous administration of nanoparticles comprising a compound of the disclosure, DSPC, cholesterol, and PEG 2 in a ratio of 50:10:38:2. […] Each composition was dosed to 8 animals at an mRNA dose of 0.5 mg/kg.
# [5] = Apparent LNP pKa by 2-(p-toluidino)-6-napthalene sulfonic acid (TNS) assay; type: physicochemical; details: pH at half of maximum fluorescence
# [6] = Surface hydrophobicity by Generalized Polarization by Laurdan (GPL); type: physicochemical; details: normalized Generalized Polarization by Laurdan; higher N-GP = less polar surface
# Text: Nanoparticle compositions including a therapeutic and/or prophylactic can be optimized according to the selection of a compound according to Formula (I), (I-1), (A), (A-1), (A-1a), or (A-1b), the selection of additional lipids, the amount of each lipid in the lipid component, and the wt:wt ratio of the lipid component to the therapeutic and/or prophylactic. Nanoparticle compositions including DSPC as a phospholipid, cholesterol as a structural lipid, PEG 2 as a PEG lipid, and a compound according to Formula (I), (I-1), (A), (A-1), (A-1a), or (A-1b) were prepared. The ratios of the lipids were 50:10:38:2 mol % for the lipid according to Formula (I), (I-1), (A), (A-1), (A-1a), or (A-1b):DSPC:cholesterol:PEG 2.
# Laurdan, a fluorescent aminonaphthalene ketone lipid, was post-inserted into the nanoparticle surface and the fluorescence spectrum of Laurdan was collected to determine the normalized Generalized Polarization (N-GP). Higher N-GP indicates a less polar surface.
Structure (SMILES),% EE (ribogreen) [1],Relative % Area Bound by LNP [2],"Median Fluorescence Intensity, PE (serum protein ApoE)",PDI [3],Size (nm) [3],% EE (ribostar) [4],Avg. [hEPO] mIU/mL (hEPO mRNA),LogIC50 (pKa) [5],Average N-GP [6]
"CCCCCCCCC(CC)OC(=O)CCCCCCCN(CCCCCCCC(=O)OC(CCCCCCCC)CCCCCCCC)CCCNC1=NC(=O)N(C)C1=O (stereo not drawn) [Compound 9, Heptadecan-9-yl 8-((3-((1-methyl-2,5-dioxo-2,5-dihydro-1H-imidazol-4-yl)amino)propyl)(8-oxo-8-(undecan-3-yloxy)octyl)amino)octanoate]",92.9%,0%,56008,0.154,77.1 nm,68.9%,5.32E+05 mIU/mL,,
"CCCCCCCCC(CC)OC(=O)CCCCCCCN(CCCCCCCC(=O)OC(CCCCCCCC)CCCCCCCC)CCCNS(C)(=N)=O (stereo not drawn) [Compound 58, Heptadecan-9-yl 8-((3-(methylsulfonoamidimidamido)propyl)(8-oxo-8-(undecan-3-yloxy)octyl)amino)octanoate]",98.6%,47.35%,,0.142,86.9 nm,,9.03E+04 mIU/mL,7.05,0.493
"CCCCCCCCC(CC)OC(=O)CCCCCCCN(CCCCCCCC(=O)OC(CCCCCCCC)CCCCCCCC)CCCNS(=O)(=O)NC (stereo not drawn) [Compound 59, Heptadecan-9-yl 8-((3-((N-methylsulfamoyl)amino)propyl)(8-oxo-8-(undecan-3-yloxy)octyl)amino)octanoate]",98.3%,0%,,0.16,72.7 nm,,2.49E+05 mIU/mL,6.74,0.762
"CCCCCCCCC(CC)OC(=O)CCCCCCCN(CCCCCCCC(=O)OC(CCCCCCCC)CCCCCCCC)CCCNC(=S)C1(C)CC1 (stereo not drawn) [Compound 61, Heptadecan-9-yl 8-((3-(1-methylcyclopropane-1-carbothioamido)propyl)(8-oxo-8-(undecan-3-yloxy)octyl)amino)octanoate]",49.1%,1.73%,,0.375,79.6 nm,,1.52E+03 mIU/mL,5.95,0.900
"CCCCCCCCC(CC)OC(=O)CCCCCCCN(CCCCCCCC(=O)OC(CCCCCCCC)CCCCCCCC)CCCNC(=O)c1ccc2c(c1)B(O)OC2 (stereo not drawn) [Compound 62, Heptadecan-9-yl 8-((3-(1-hydroxy-1,3-dihydrobenzo[c][1,2]oxaborole-6-carboxamido)propyl)(8-oxo-8-(undecan-3-yloxy)octyl)amino)octanoate]",28.3%,3.99%,,0.233,124.3 nm,,1.60E+05 mIU/mL,6.80,0.890
"CCCCCCCCC(CC)OC(=O)CCCCCCCN(CCCCCCCC(=O)OC(CCCCCCCC)CCCCCCCC)CCCNS(=O)(=O)CCOCc1ccccc1 (stereo not drawn) [Compound 63, Heptadecan-9-yl 8-((3-((2-(benzyloxy)ethyl)sulfonamido)propyl)(8-oxo-8-(undecan-3-yloxy)octyl)amino)octanoate]",37.7%,6.25%,,0.273,126.4 nm,,1.90E+05 mIU/mL,6.41,0.866
"CCCCCCCCC(CC)OC(=O)CCCCCCCN(CCCCCCCC(=O)OC(CCCCCCCC)CCCCCCCC)CCCNS(C)(=O)=O (stereo not drawn) [Compound 65, Heptadecan-9-yl 8-((3-(methylsulfonamido)propyl)(8-oxo-8-(undecan-3-yloxy)octyl)amino)octanoate]",96.8%,4.86%,,0.155,73.2 nm,,3.64E+05 mIU/mL,6.81,0.713
"CCCCCCCCC(CC)OC(=O)CCCCCCCN(CCCCCCCC(=O)OC(CCCCCCCC)CCCCCCCC)CCCNS(=O)(=O)c1ccn(C)n1 (stereo not drawn) [Compound 68, Heptadecan-9-yl 8-((3-((1-methyl-1H-pyrazole)-3-sulfonamido)propyl)(8-oxo-8-(undecan-3-yloxy)octyl)amino)octanoate]",96.6%,1.12%,,0.109,63.2 nm,,4.29E+05 mIU/mL,6.71,0.822
"CCCCCCCCC(CC)OC(=O)CCCCCCCN(CCCCCCCC(=O)OC(CCCCCCCC)CCCCCCCC)CCCNS(=O)(=O)c1ncc[nH]1 (stereo not drawn) [Compound 69, Heptadecan-9-yl 8-((3-(1H-imidazole-2-sulfonamido)propyl)(8-oxo-8-(undecan-3-yloxy)octyl)amino)octanoate]",97%,0.93%,,0.108,66.8 nm,,2.61E+05 mIU/mL,6.56,0.812
